{
  "source": "ChEMBL document CHEMBL1147100",
  "about": "“Metronidazole plus rifampin sterilizes long-term dormant Mycobacterium tuberculosis” (Antimicrob Agents Chemother, 2007)",
  "format_in_all_cases": "functional, organism-based",
  "key": {"[1]": {"tested_on": "Mycobacterium tuberculosis", "assay": "Bactericidal activity against 12-day old non-replicating Mycobacterium tuberculosis H37Rv in anaerobic condition at 8 ug/ml after 11 days by Wayne dormancy culture model"}, "[2]": {"tested_on": "Mycobacterium tuberculosis", "assay": "Bactericidal activity against 12-day old non-replicating Mycobacterium tuberculosis H37Rv in anaerobic condition at 8 ug/ml after 1 day by Wayne dormancy culture model"}, "[3]": {"tested_on": "Mycobacterium tuberculosis", "assay": "Bactericidal activity against 26-day old non-replicating Mycobacterium tuberculosis H37Rv in anaerobic condition at 8 ug/ml after 11 days by Wayne dormancy culture model"}, "[4]": {"tested_on": "Mycobacterium tuberculosis", "assay": "Bactericidal activity against 26-day old non-replicating Mycobacterium tuberculosis H37Rv in anaerobic condition at 8 ug/ml after 4 days by Wayne dormancy culture model"}, "[5]": {"tested_on": "Mycobacterium tuberculosis", "assay": "Bactericidal activity against 19-day old non-replicating Mycobacterium tuberculosis H37Rv in anaerobic condition at 8 ug/ml after 1 day by Wayne dormancy culture model"}, "[6]": {"tested_on": "Mycobacterium tuberculosis", "assay": "Bactericidal activity against 19-day old non-replicating Mycobacterium tuberculosis H37Rv in anaerobic condition at 8 ug/ml after 4 days by Wayne dormancy culture model"}, "[7]": {"tested_on": "Mycobacterium tuberculosis", "assay": "Bactericidal activity against 19-day old non-replicating Mycobacterium tuberculosis H37Rv in anaerobic condition at 8 ug/ml after 11 days by Wayne dormancy culture model"}, "[8]": {"tested_on": "Mycobacterium tuberculosis", "assay": "Bactericidal activity against 5-day old actively replicating Mycobacterium tuberculosis H37Rv in aerobic condition at 8 ug/ml by Wayne dormancy culture model"}, "[9]": {"tested_on": "Mycobacterium tuberculosis", "assay": "Bactericidal activity against 12-day old non-replicating Mycobacterium tuberculosis H37Rv in anaerobic condition at 8 ug/ml after 4 days by Wayne dormancy culture model"}, "[10]": {"tested_on": "Mycobacterium tuberculosis", "assay": "Bactericidal activity against 26-day old non-replicating Mycobacterium tuberculosis H37Rv in anaerobic condition at 8 ug/ml after 1 day by Wayne dormancy culture model"}, "[11]": {"tested_on": "Mycobacterium tuberculosis", "assay": "Bactericidal activity against 5-day old actively replicating Mycobacterium tuberculosis H37Rv in aerobic condition at 1 ug/ml after 11 days by Wayne dormancy culture model"}, "[12]": {"tested_on": "Mycobacterium tuberculosis", "assay": "Bactericidal activity against 12-day old non-replicating Mycobacterium tuberculosis H37Rv in anaerobic condition at 1 ug/ml after 4 days by Wayne dormancy culture model"}, "[13]": {"tested_on": "Mycobacterium tuberculosis", "assay": "Bactericidal activity against 12-day old non-replicating Mycobacterium tuberculosis H37Rv in anaerobic condition at 1 ug/ml after 11 days by Wayne dormancy culture model"}, "[14]": {"tested_on": "Mycobacterium tuberculosis", "assay": "Bactericidal activity against 26-day old non-replicating Mycobacterium tuberculosis H37Rv at 1 ug/ml after 1 day by Wayne in anaerobic condition dormancy culture model"}, "[15]": {"tested_on": "Mycobacterium tuberculosis", "assay": "Bactericidal activity against 26-day old non-replicating Mycobacterium tuberculosis H37Rv in anaerobic condition at 1 ug/ml after 11 days by Wayne dormancy culture model"}, "[16]": {"tested_on": "Mycobacterium tuberculosis", "assay": "Bactericidal activity against 19-day old non-replicating Mycobacterium tuberculosis H37Rv in anaerobic condition at 1 ug/ml after 1 day by Wayne dormancy culture model"}, "[17]": {"tested_on": "Mycobacterium tuberculosis", "assay": "Bactericidal activity against 5-day old actively replicating Mycobacterium tuberculosis H37Rv in aerobic condition at 1 ug/ml after 4 days by Wayne dormancy culture model"}, "[18]": {"tested_on": "Mycobacterium tuberculosis", "assay": "Bactericidal activity against 12-day old non-replicating Mycobacterium tuberculosis H37Rv in anaerobic condition at 1 ug/ml after 1 day by Wayne dormancy culture model"}, "[19]": {"tested_on": "Mycobacterium tuberculosis", "assay": "Bactericidal activity against 19-day old non-replicating Mycobacterium tuberculosis H37Rv in anaerobic condition at 1 ug/ml after 4 days by Wayne dormancy culture model"}, "[20]": {"tested_on": "Mycobacterium tuberculosis", "assay": "Bactericidal activity against 26-day old non-replicating Mycobacterium tuberculosis H37Rv in anaerobic condition at 1 ug/ml after 4 days by Wayne dormancy culture model"}, "[21]": {"tested_on": "Mycobacterium tuberculosis", "assay": "Bactericidal activity against 5-day old actively replicating Mycobacterium tuberculosis H37Rv in aerobic condition at 1 ug/ml after 1 day by Wayne dormancy culture model"}, "[22]": {"tested_on": "Mycobacterium tuberculosis", "assay": "Bactericidal activity against 19-day old non-replicating Mycobacterium tuberculosis H37Rv in anaerobic condition at 1 ug/ml after 11 days by Wayne dormancy culture model"}},
  "note": "Active and inactive are the calls of the source. The rule behind the calls is not given here.",
  "data": [
    {"smiles": "Cc1ncc([N+](=O)[O-])n1CCO", "values": [
      {"measurement": "Activity", "setting": "[1]", "result": "Active"},
      {"measurement": "Activity", "setting": "[2]", "result": "Active"},
      {"measurement": "Activity", "setting": "[3]", "result": "Active"},
      {"measurement": "Activity", "setting": "[4]", "result": "Active"},
      {"measurement": "Activity", "setting": "[5]", "result": "Active"},
      {"measurement": "Activity", "setting": "[6]", "result": "Active"},
      {"measurement": "Activity", "setting": "[7]", "result": "Active"},
      {"measurement": "Activity", "setting": "[8]", "result": "inactive"},
      {"measurement": "Activity", "setting": "[9]", "result": "Active"},
      {"measurement": "Activity", "setting": "[10]", "result": "Active"}
    ]},
    {"smiles": "CO[C@H]1/C=C/O[C@@]2(C)Oc3c(C)c(O)c4c(O)c(c(/C=N/N5CCN(C)CC5)c(O)c4c3C2=O)NC(=O)/C(C)=C\\C=C\\[C@H](C)[C@H](O)[C@@H](C)[C@@H](O)[C@@H](C)[C@H](OC(C)=O)[C@@H]1C", "values": [
      {"measurement": "Activity", "setting": "[11]", "result": "Active"},
      {"measurement": "Activity", "setting": "[12]", "result": "Active"},
      {"measurement": "Activity", "setting": "[13]", "result": "Active"},
      {"measurement": "Activity", "setting": "[14]", "result": "Active"},
      {"measurement": "Activity", "setting": "[15]", "result": "Active"},
      {"measurement": "Activity", "setting": "[16]", "result": "Active"},
      {"measurement": "Activity", "setting": "[17]", "result": "Active"},
      {"measurement": "Activity", "setting": "[18]", "result": "Active"},
      {"measurement": "Activity", "setting": "[19]", "result": "Active"},
      {"measurement": "Activity", "setting": "[20]", "result": "Active"},
      {"measurement": "Activity", "setting": "[21]", "result": "Active"},
      {"measurement": "Activity", "setting": "[22]", "result": "Active"}
    ]}
  ]
}
